# According to article PMC7340670, “Phase I study of TAS-115, a novel oral multi-kinase inhibitor, in patients with advanced solid tumors” (Investigational New Drugs, 2019):
# “Also recorded” adds a separate entry of the source.
# Legend:
# recombinant MET = tested on: recombinant MET; set-up: method as in PMID 24140932; settings: read-out: IC50 against recombinant MET; cited from earlier work
# [1] = tested on: patients with advanced solid tumors; test: Phase I study (JapicCTI-132333): safety, tolerability, DLT, MTD, RP2D; format: in vivo
# Protocol: This is an open-label, nonrandomized, dose-escalation study conducted at five sites in Japan. The study has three parts: a dose-escalation cohort using a traditional 3 + 3 design (part 1), a dosing schedule investigation cohort (part 2), and an expansion cohort to assess the safety at the MTD or lower doses among more patients (expansion part).
# For each dose level in part 1, three to six patients were enrolled. DLTs were evaluated during the first cycle. […] The study drug was orally administered under empty stomach conditions (1 h before or 2 h after a meal) with a cup of water. […] In the expansion part, ≤MTD was investigated for exposure and safety.
# All patients in parts 1 and 2 were required to be hospitalized for cycle 1 in order to observe AE. Patients continued to receive the study drug until disease progression or intolerable toxicity. […] The number of dose reductions was up to 2, and the minimum dose was 100 mg/day. […]
# [2] = Part 1, 200–800 mg/day, SID (N = 21), patients (%)
# [3] = Part 2 + Expansion part, 450 or 650 mg/day, 5-on/2-off (N = 61), patients (%)
# [4] = part 2 and expansion part (N = 61)
compound,measurement,setting,value
CNC(=O)c1cc2c(Oc3ccc(NC(=S)NC(=O)Cc4ccccc4)cc3F)ccnc2cc1OC [TAS-115],IC50,recombinant MET,32 nM
same,CRPC patients with AEs requiring dose reduction,"[1]; 650 mg/day, early expansion part",five of six
same,"Treatment-related adverse events: Alanine aminotransferase increased, Any Grade",[1]; [2],11 (52.4)
same,"Treatment-related adverse events: Alanine aminotransferase increased, ≥ Grade 3",[1]; [2],0 (0.0)
same,"Treatment-related adverse events: Amylase increased, Any Grade",[1]; [2],8 (38.1)
same,"Treatment-related adverse events: Amylase increased, ≥ Grade 3",[1]; [2],3 (14.3)
same,"Treatment-related adverse events: Anemia, Any Grade",[1]; [2],2 (9.5)
same,"Treatment-related adverse events: Anemia, ≥ Grade 3",[1]; [2],2 (9.5)
same,"Treatment-related adverse events: Any Events, Any Grade",[1]; [2],21 (100.0)
same,"Treatment-related adverse events: Any Events, ≥ Grade 3",[1]; [2],13 (61.9)
same,"Treatment-related adverse events: Aspartate aminotransferase increased, Any Grade",[1]; [2],15 (71.4)
same,"Treatment-related adverse events: Aspartate aminotransferase increased, ≥ Grade 3",[1]; [2],0 (0.0)
same,"Treatment-related adverse events: Decreased appetite, Any Grade",[1]; [2],7 (33.3)
same,"Treatment-related adverse events: Decreased appetite, ≥ Grade 3",[1]; [2],1 (4.8)
same,"Treatment-related adverse events: Diarrhea, Any Grade",[1]; [2],3 (14.3)
same,"Treatment-related adverse events: Diarrhea, ≥ Grade 3",[1]; [2],0 (0.0)
same,"Treatment-related adverse events: Edema, Any Grade",[1]; [2],6 (28.6)
same,"Treatment-related adverse events: Edema, ≥ Grade 3",[1]; [2],0 (0.0)
same,"Treatment-related adverse events: Face edema, Any Grade",[1]; [2],6 (28.6)
same,"Treatment-related adverse events: Face edema, ≥ Grade 3",[1]; [2],0 (0.0)
same,"Treatment-related adverse events: Fatigue, Any Grade",[1]; [2],10 (47.6)
same,"Treatment-related adverse events: Fatigue, ≥ Grade 3",[1]; [2],0 (0.0)
same,"Treatment-related adverse events: Hypophosphatemia, Any Grade",[1]; [2],6 (28.6)
same,"Treatment-related adverse events: Hypophosphatemia, ≥ Grade 3",[1]; [2],5 (23.8)
same,"Treatment-related adverse events: Leukocytopenia, Any Grade",[1]; [2],8 (38.1)
same,"Treatment-related adverse events: Leukocytopenia, ≥ Grade 3",[1]; [2],2 (9.5)
same,"Treatment-related adverse events: Lipase increased, Any Grade",[1]; [2],6 (28.6)
same,"Treatment-related adverse events: Lipase increased, ≥ Grade 3",[1]; [2],5 (23.8)
same,"Treatment-related adverse events: Nausea, Any Grade",[1]; [2],7 (33.3)
same,"Treatment-related adverse events: Nausea, ≥ Grade 3",[1]; [2],0 (0.0)
same,"Treatment-related adverse events: Neutropenia, Any Grade",[1]; [2],8 (38.1)
same,"Treatment-related adverse events: Neutropenia, ≥ Grade 3",[1]; [2],3 (14.3)
same,"Treatment-related adverse events: Rash, Any Grade",[1]; [2],12 (57.1)
same,"Treatment-related adverse events: Rash, ≥ Grade 3",[1]; [2],2 (9.5)
same,"Treatment-related adverse events: Thrombocytopenia, Any Grade",[1]; [2],8 (38.1)
same,"Treatment-related adverse events: Thrombocytopenia, ≥ Grade 3",[1]; [2],1 (4.8)
same,"Treatment-related adverse events: Vomiting, Any Grade",[1]; [2],4 (19.0)
same,"Treatment-related adverse events: Vomiting, ≥ Grade 3",[1]; [2],0 (0.0)
same,"Treatment-related adverse events: Alanine aminotransferase increased, Any Grade",[1]; [3],23 (37.7)
same,"Treatment-related adverse events: Alanine aminotransferase increased, ≥ Grade 3",[1]; [3],1 (1.6)
same,"Treatment-related adverse events: Amylase increased, Any Grade",[1]; [3],10 (16.4)
same,"Treatment-related adverse events: Amylase increased, ≥ Grade 3",[1]; [3],1 (1.6)
same,"Treatment-related adverse events: Anemia, Any Grade",[1]; [3],21 (34.4)
same,"Treatment-related adverse events: Anemia, ≥ Grade 3",[1]; [3],9 (14.8)
same,"Treatment-related adverse events: Any Events, Any Grade",[1]; [3],60 (98.4)
same,"Treatment-related adverse events: Any Events, ≥ Grade 3",[1]; [3],47 (77.0)
same,"Treatment-related adverse events: Aspartate aminotransferase increased, Any Grade",[1]; [3],31 (50.8)
same,"Treatment-related adverse events: Aspartate aminotransferase increased, ≥ Grade 3",[1]; [3],4 (6.6)
same,"Treatment-related adverse events: Decreased appetite, Any Grade",[1]; [3],26 (42.6)
same,"Treatment-related adverse events: Decreased appetite, ≥ Grade 3",[1]; [3],6 (9.8)
same,"Treatment-related adverse events: Diarrhea, Any Grade",[1]; [3],14 (23.0)
same,"Treatment-related adverse events: Diarrhea, ≥ Grade 3",[1]; [3],0 (0.0)
same,"Treatment-related adverse events: Edema, Any Grade",[1]; [3],10 (16.4)
same,"Treatment-related adverse events: Edema, ≥ Grade 3",[1]; [3],0 (0.0)
same,"Treatment-related adverse events: Face edema, Any Grade",[1]; [3],11 (18.0)
same,"Treatment-related adverse events: Face edema, ≥ Grade 3",[1]; [3],0 (0.0)
same,"Treatment-related adverse events: Fatigue, Any Grade",[1]; [3],27 (44.3)
same,"Treatment-related adverse events: Fatigue, ≥ Grade 3",[1]; [3],1 (1.6)
same,"Treatment-related adverse events: Hypophosphatemia, Any Grade",[1]; [3],20 (32.8)
same,"Treatment-related adverse events: Hypophosphatemia, ≥ Grade 3",[1]; [3],13 (21.3)
same,"Treatment-related adverse events: Leukocytopenia, Any Grade",[1]; [3],18 (29.5)
same,"Treatment-related adverse events: Leukocytopenia, ≥ Grade 3",[1]; [3],7 (11.5)
same,"Treatment-related adverse events: Lipase increased, Any Grade",[1]; [3],9 (14.8)
same,"Treatment-related adverse events: Lipase increased, ≥ Grade 3",[1]; [3],4 (6.6)
same,"Treatment-related adverse events: Nausea, Any Grade",[1]; [3],26 (42.6)
same,"Treatment-related adverse events: Nausea, ≥ Grade 3",[1]; [3],1 (1.6)
same,"Treatment-related adverse events: Neutropenia, Any Grade",[1]; [3],21 (34.4)
same,"Treatment-related adverse events: Neutropenia, ≥ Grade 3",[1]; [3],15 (24.6)
same,"Treatment-related adverse events: Rash, Any Grade",[1]; [3],15 (24.6)
same,"Treatment-related adverse events: Rash, ≥ Grade 3",[1]; [3],1 (1.6)
same,"Treatment-related adverse events: Thrombocytopenia, Any Grade",[1]; [3],19 (31.1)
same,"Treatment-related adverse events: Thrombocytopenia, ≥ Grade 3",[1]; [3],9 (14.8)
same,"Treatment-related adverse events: Vomiting, Any Grade",[1]; [3],19 (31.1)
same,"Treatment-related adverse events: Vomiting, ≥ Grade 3",[1]; [3],1 (1.6)
same,recommended phase II dose (RP2D),"[1]; SID, 5-on/2-off for 21 days per cycle, estimated",650 mg
same,treatment-related death,"[1]; any study part, during treatment or within 28 days of the last dose",No treatment-related death was observed
same,patients with TRAEs leading to dose interruption,[1]; cohorts 650 mg and 800 mg in part 1,All the patients
same,Serious AEs,[1]; expansion part,thirty one patients
same,Serious TRAEs,[1]; expansion part,"decreased appetite (three patients), nausea (two patients), interstitial lung disease, rash, enterocolitis, fatigue, thrombocytopenia, and pyrexia (one patient each)"
same,AEs resulted in death,"[1]; expansion part (650 mg), not considered related to TAS-115","hepatic failure, disease progression and respiratory failure occurred in one patient each"
same,Serious AEs,[1]; part 1,seven patients
same,Serious TRAEs,[1]; part 1,"tumor hemorrhage and decreased appetite (one patient, 650 mg each), thrombocytopenia (one patient, 800 mg)"
same,TRAEs that led to treatment discontinuation,[1]; part 1,"rash (one patient, 800 mg)"
same,Grade ≥3 TRAEs,[1]; part 1 (N = 21),13 patients
same,"Treatment-related adverse events: Any Events, Total","[1]; part 1, 200 mg SID (N=3)",3 (100.0) N (%)
same,"Treatment-related adverse events: Any Events, ≥ Grade 3","[1]; part 1, 200 mg SID (N=3)",1 (33.3) N (%)
same,"Treatment-related adverse events: Investigations, Total","[1]; part 1, 200 mg SID (N=3)",2 (66.7) N (%)
same,"Treatment-related adverse events: Investigations, ≥ Grade 3","[1]; part 1, 200 mg SID (N=3)",1 (33.3) N (%)
same,"Treatment-related adverse events: Any Events, Total","[1]; part 1, 300 mg SID (N=3)",3 (100.0) N (%)
same,"Treatment-related adverse events: Any Events, ≥ Grade 3","[1]; part 1, 300 mg SID (N=3)",2 (66.7) N (%)
same,"Treatment-related adverse events: Investigations, Total","[1]; part 1, 300 mg SID (N=3)",2 (66.7) N (%)
same,"Treatment-related adverse events: Investigations, ≥ Grade 3","[1]; part 1, 300 mg SID (N=3)",2 (66.7) N (%)
same,"Treatment-related adverse events: Any Events, Total","[1]; part 1, 450 mg SID (N=3)",3 (100.0) N (%)
same,"Treatment-related adverse events: Any Events, ≥ Grade 3","[1]; part 1, 450 mg SID (N=3)",2 (66.7) N (%)
same,"Treatment-related adverse events: Investigations, Total","[1]; part 1, 450 mg SID (N=3)",3 (100.0) N (%)
same,"Treatment-related adverse events: Investigations, ≥ Grade 3","[1]; part 1, 450 mg SID (N=3)",2 (66.7) N (%)
same,treatment interruption during cycle 1,"[1]; part 1, 650 mg SID",all patients who received 650 mg SID required treatment interruption; also recorded: all patients who received 650 mg SID had treatment interruption
same,"Treatment-related adverse events: Any Events, Total","[1]; part 1, 650 mg SID (N=6)",6 (100.0) N (%)
same,"Treatment-related adverse events: Any Events, ≥ Grade 3","[1]; part 1, 650 mg SID (N=6)",5 (83.3) N (%)
same,"Treatment-related adverse events: Investigations, Total","[1]; part 1, 650 mg SID (N=6)",6 (100.0) N (%)
same,"Treatment-related adverse events: Investigations, ≥ Grade 3","[1]; part 1, 650 mg SID (N=6)",3 (50.0) N (%)
same,"Treatment-related adverse events: Any Events, Total","[1]; part 1, 800 mg SID (N=6)",6 (100.0) N (%)
same,"Treatment-related adverse events: Any Events, ≥ Grade 3","[1]; part 1, 800 mg SID (N=6)",3 (50.0) N (%)
same,"Treatment-related adverse events: Investigations, Total","[1]; part 1, 800 mg SID (N=6)",4 (66.7) N (%)
same,"Treatment-related adverse events: Investigations, ≥ Grade 3","[1]; part 1, 800 mg SID (N=6)",1 (16.7) N (%)
same,dose dependence of TRAEs,"[1]; part 1, 200–800 mg SID",no dose-dependent increase in the incidence and grade of TRAEs was observed
same,DLTs overall,"[1]; part 1, 200–800 mg SID, 21 patients",Three dose-limiting toxicities; also recorded: three DLTs
same,maximum tolerated dose (MTD),"[1]; part 1, SID, 21 days per cycle, granule formulation",650 mg
same,DLTs at 650 mg SID,"[1]; part 1, cycle 1, N = 6",grade 3 rash in one patient
same,DLTs at 800 mg SID,"[1]; part 1, cycle 1, N = 6",grade 3 thrombocytopenia with bleeding and grade 3 rash each in one patient
same,Serious AEs,[1]; part 2,two patients
same,Serious TRAEs,[1]; part 2,peritonitis (one patient)
same,treatment interruption in cycle 1,"[1]; part 2, 650 mg SID 5-on/2-off",no patients required treatment interruption
same,DLTs at 650 mg SID 5-on/2-off,"[1]; part 2, cycle 1, six patients",No DLTs were observed; also recorded: no DLTs were reported
same,TRAEs that led to treatment discontinuation,[1]; part 2 and expansion part,"rash (two patients, 650 mg), pyrexia, peritonitis and neutropenia (one patient each, 650 mg)"
same,"TRAE anemia, any grade",[1]; [4],34.4%
same,"TRAE decreased appetite, any grade",[1]; [4],42.6%
same,"TRAE fatigue, any grade",[1]; [4],44.3%
same,"TRAE hypophosphatemia, any grade",[1]; [4],32.8%
same,"TRAE increased ALT, any grade",[1]; [4],37.7%
same,"TRAE increased AST, any grade",[1]; [4],50.8%
same,"TRAE nausea, any grade",[1]; [4],42.6%
same,"TRAE neutropenia, any grade",[1]; [4],34.4%
same,"TRAE thrombocytopenia, any grade",[1]; [4],31.1%
same,"TRAE vomiting, any grade",[1]; [4],31.1%
same,grade ≥3 TRAE anemia,[1]; [4],14.8%
same,grade ≥3 TRAE hypophosphatemia,[1]; [4],21.3%
same,grade ≥3 TRAE leukocytopenia,[1]; [4],11.5%
same,grade ≥3 TRAE neutropenia,[1]; [4],24.6%
same,grade ≥3 TRAE thrombocytopenia,[1]; [4],14.8%
same,frequency of TRAEs leading to dose interruption,[1]; part 2 and the expansion part,approximately 77%
same,tolerability,"[1]; patients with advanced solid tumors, up to 650 mg 5-on/2-off",generally well tolerated
